Data reported in ChEMBL document CHEMBL3714716, “Modulators of the relaxin receptor 1” (2015).
Active and inactive are the calls of the source. The calls are words filed in the database; no cut-off is given here.

What was measured:
[1] = Initial plasma concentration in C57/BL6 mouse plasma at 3 mg/kg, iv administered as single dose; format: ADME, organism-based
[2] = test system: Heart; assay: AUMClast in C57/BL6 mouse heart at 30 mg/kg, po administered as single dose; format: ADME, organism-based; conditions: in vivo
[3] = target: T1, Relaxin receptor 1 (Macaca mulatta) (UniProt I2CTQ4); assay: Agonist activity at monkey RXFP1 receptor assessed as stimulation of cAMP production incubated for 30 mins by TR-FRET based HTRF assay; format: functional
T1 sequence (whole entry): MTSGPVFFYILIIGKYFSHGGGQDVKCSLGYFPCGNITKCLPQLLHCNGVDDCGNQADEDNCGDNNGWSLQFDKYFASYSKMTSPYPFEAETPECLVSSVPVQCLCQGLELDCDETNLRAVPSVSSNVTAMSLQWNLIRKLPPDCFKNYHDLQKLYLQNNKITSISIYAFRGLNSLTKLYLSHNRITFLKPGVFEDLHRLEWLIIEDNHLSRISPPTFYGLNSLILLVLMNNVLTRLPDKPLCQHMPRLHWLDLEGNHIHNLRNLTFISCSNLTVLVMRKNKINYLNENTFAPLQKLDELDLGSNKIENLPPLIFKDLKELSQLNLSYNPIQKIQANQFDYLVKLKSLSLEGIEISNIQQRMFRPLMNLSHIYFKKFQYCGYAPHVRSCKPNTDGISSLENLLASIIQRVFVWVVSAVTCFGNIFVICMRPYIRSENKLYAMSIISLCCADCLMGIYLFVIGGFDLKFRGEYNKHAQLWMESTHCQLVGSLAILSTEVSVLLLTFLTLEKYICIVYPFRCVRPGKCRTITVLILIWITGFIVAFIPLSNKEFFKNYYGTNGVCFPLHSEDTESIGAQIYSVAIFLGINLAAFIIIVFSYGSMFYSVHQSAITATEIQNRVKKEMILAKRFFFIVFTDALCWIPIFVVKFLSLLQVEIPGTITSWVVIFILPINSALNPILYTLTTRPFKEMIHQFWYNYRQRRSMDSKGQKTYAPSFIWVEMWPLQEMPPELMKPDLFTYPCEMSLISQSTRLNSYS

[4] = Cmax in C57/BL6 mouse plasma at 30 mg/kg, po administered as single dose; format: ADME, organism-based; parameters: dose 30 mg/kg, route oral
[5] = target: T2, Relaxin receptor 1 (Mus musculus) (UniProt Q6R6I7); assay: Agonist activity at mouse RXFP1 receptor M11 Asp659Gly and Ser660Thr mutant expressed in HEK293 cells assessed as stimulation of cAMP production at 66 uM incubated for 30 mins by TR-FRET based HTRF assay relative to relaxin; format: functional, cell-based; parameters: scale not given: the % may be the effect or the level left
T2 sequence (whole entry): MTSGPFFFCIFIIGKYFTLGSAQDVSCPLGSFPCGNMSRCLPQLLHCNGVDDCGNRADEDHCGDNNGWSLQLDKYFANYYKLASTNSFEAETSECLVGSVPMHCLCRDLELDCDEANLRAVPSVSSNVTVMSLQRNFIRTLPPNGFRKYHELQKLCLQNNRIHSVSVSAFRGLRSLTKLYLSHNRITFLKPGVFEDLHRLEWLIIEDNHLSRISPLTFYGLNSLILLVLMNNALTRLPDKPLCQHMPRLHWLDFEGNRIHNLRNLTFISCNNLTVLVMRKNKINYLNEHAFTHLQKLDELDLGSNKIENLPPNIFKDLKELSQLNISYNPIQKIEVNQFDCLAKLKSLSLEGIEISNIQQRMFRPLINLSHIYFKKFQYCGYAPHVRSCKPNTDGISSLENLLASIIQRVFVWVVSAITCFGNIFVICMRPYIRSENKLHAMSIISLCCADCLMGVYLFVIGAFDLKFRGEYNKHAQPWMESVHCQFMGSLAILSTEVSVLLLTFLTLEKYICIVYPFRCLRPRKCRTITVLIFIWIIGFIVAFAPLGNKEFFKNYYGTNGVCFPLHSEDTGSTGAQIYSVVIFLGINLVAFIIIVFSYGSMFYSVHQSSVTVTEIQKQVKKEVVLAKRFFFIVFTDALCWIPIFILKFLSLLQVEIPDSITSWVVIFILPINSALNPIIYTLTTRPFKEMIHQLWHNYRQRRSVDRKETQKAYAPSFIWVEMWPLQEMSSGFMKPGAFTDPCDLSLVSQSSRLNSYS

[6] = target: T3, Uncharacterized protein (Sus scrofa) (UniProt F1RW91); assay: Agonist activity at pig RXFP1 receptor assessed as stimulation of cAMP production incubated for 30 mins by TR-FRET based HTRF assay; format: functional
T3 sequence (whole entry): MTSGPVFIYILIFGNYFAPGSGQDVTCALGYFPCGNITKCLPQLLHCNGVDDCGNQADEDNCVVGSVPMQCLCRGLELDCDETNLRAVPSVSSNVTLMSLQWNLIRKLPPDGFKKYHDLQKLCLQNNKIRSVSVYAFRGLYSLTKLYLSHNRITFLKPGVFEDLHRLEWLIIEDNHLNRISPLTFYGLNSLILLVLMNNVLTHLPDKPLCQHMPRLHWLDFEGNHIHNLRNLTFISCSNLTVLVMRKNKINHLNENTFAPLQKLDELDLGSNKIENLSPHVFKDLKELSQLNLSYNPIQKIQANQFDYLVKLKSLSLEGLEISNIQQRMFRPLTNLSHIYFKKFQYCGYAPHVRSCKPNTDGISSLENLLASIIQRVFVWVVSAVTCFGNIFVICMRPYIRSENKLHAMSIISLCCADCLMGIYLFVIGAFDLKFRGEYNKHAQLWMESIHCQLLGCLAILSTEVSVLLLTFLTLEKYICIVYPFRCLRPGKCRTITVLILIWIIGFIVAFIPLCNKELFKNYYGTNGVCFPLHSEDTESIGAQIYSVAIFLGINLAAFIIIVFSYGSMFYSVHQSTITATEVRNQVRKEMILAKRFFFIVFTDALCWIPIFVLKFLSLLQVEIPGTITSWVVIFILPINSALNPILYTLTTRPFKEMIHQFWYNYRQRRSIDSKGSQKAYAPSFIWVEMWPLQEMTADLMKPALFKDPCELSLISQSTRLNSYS

[7] = target: Relaxin receptor 2 (Mus musculus) (UniProt Q91ZZ5); assay: Agonist activity at mouse RXFP2 receptor expressed in HEK293 cells assessed as stimulation of cAMP production incubated for 30 mins by TR-FRET based HTRF assay; format: functional, cell-based
[8] = target: T2, Relaxin receptor 1 (Mus musculus); assay: Agonist activity at mouse RXFP1 receptor expressed in HEK293 cells assessed as stimulation of cAMP production incubated for 30 mins by TR-FRET based HTRF assay; format: functional, cell-based
[9] = test system: Heart; assay: AUMClast in C57/BL6 mouse heart at 3 mg/kg, iv administered as single dose; format: ADME, organism-based; conditions: in vivo
[10] = test system: Plasma; assay: AUMClast in C57/BL6 mouse plasma at 3 mg/kg, iv administered as single dose; format: ADME, organism-based; conditions: in vivo
[11] = Tmax in C57/BL6 mouse heart at 30 mg/kg, po administered as single dose; format: ADME, organism-based
[12] = test system: Plasma; assay: AUMClast in C57/BL6 mouse plasma at 30 mg/kg, po administered as single dose; format: ADME, organism-based; conditions: in vivo
[13] = Tmax in C57/BL6 mouse plasma at 30 mg/kg, po administered as single dose; format: ADME, organism-based
[14] = target: T2, Relaxin receptor 1 (Mus musculus); assay: Agonist activity at mouse RXFP1 receptor M10 Ile646Val and Leu647Val mutant expressed in HEK293 cells assessed as stimulation of cAMP production incubated for 30 mins by TR-FRET based HTRF assay; format: functional, cell-based

Sequence of Relaxin receptor 2 (Mus musculus) (Q91ZZ5 whole entry): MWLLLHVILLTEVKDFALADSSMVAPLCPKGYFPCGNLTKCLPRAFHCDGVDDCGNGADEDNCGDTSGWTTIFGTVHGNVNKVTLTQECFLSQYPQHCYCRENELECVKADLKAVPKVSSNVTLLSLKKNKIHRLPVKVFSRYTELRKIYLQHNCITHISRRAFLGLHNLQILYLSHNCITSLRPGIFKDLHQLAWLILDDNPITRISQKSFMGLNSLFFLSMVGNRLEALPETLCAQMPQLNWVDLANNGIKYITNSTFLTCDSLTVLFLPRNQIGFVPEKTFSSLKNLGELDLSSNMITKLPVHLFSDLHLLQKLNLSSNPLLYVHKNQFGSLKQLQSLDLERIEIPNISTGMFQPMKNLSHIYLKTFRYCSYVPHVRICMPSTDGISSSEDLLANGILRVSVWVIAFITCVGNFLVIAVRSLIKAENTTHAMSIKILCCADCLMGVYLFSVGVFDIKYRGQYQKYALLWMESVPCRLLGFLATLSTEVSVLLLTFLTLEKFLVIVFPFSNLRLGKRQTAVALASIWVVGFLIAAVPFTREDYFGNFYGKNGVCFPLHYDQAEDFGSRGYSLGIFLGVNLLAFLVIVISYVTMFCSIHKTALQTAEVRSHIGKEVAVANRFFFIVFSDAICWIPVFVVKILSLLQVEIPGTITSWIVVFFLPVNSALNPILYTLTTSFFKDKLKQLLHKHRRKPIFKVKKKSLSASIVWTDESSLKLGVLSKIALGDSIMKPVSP

CC(C)Oc1ccccc1C(=O)Nc1ccccc1C(=O)Nc1cccc(S(=O)(=O)C(F)(F)F)c1
C0 [1]: 499 ng/mL
AUMClast [2]: 5780 hr.hr.ng/ml
Activity [3]: Active
Cmax [4]: 306 ng/mL
Activity [5]: 44.4%
Activity [6]: Active
Activity [7]: inactive
Activity [8]: inactive
AUMClast [9]: 28300 hr.hr.ng/ml
AUMClast [10]: 3110 hr.hr.ng/ml
Tmax [11]: 1.5 h
AUMClast [12]: 2990 hr.hr.ng/ml
Tmax [13]: 0.5 h
Activity [14]: inactive
